{"source": "patent US10201523B2", "about": "“Use of wilforlide A for overcoming chemotherapy resistance” (WESTERN UNIVERSITY OF HEALTH SCIENCES, priority 2013, dated 2019)", "key": {"K562/Dox": {"tested_on": "K562/Dox", "test": "SRB cell viability assay, daunorubicin with/without wilforlide A pretreatment", "assay_type": "cell-based", "settings": "for viability at 0.001 µM / viability at 0.1 µM / viability at 0.333 µM / viability at 1 µM / viability at 3.33 µM / viability at 10 µM / viability at 33.3 µM / viability at 100 µM / IC50: Homo sapiens; for A at 565 nm: background = 0.043", "from_the_text": "Wilforlide A sensitizes the daunorubicin-resistant myelogenous leukemia line K562/Dox, to daunorubicin. […] FIG. 5 summarizes the data of Tables 20 and 21 in a graphical format."}, "K562": {"tested_on": "K562", "test": "SRB cell viability assay, daunorubicin IC50", "assay_type": "cell-based", "settings": "Homo sapiens, 72 h, read-out: Drug IC50 no pre-Tx"}, "[1]": {"settings": "K562/Dox, no wilforlide A pre-Tx, daunorubicin 0.001 μM 72 h"}, "[2]": {"settings": "K562/Dox, no wilforlide A pre-Tx, daunorubicin 0.333 μM 72 h"}, "[3]": {"settings": "K562/Dox, no wilforlide A pre-Tx, daunorubicin 1 μM 72 h"}, "[4]": {"settings": "K562/Dox, no wilforlide A pre-Tx, daunorubicin 3.33 μM 72 h"}, "[5]": {"settings": "K562/Dox, no wilforlide A pre-Tx, daunorubicin 10 μM 72 h"}, "[6]": {"settings": "K562/Dox, no wilforlide A pre-Tx, daunorubicin 33.3 μM 72 h"}, "[7]": {"settings": "K562/Dox, no wilforlide A pre-Tx, daunorubicin 100 μM 72 h"}, "[8]": {"settings": "K562/Dox, wilforlide A 2.5 μg/ml pre-Tx, daunorubicin 0.001 μM 72 h"}, "[9]": {"settings": "K562/Dox, wilforlide A 2.5 μg/ml pre-Tx, daunorubicin 0.333 μM 72 h"}, "[10]": {"settings": "K562/Dox, wilforlide A 2.5 μg/ml pre-Tx, daunorubicin 1 μM 72 h"}, "[11]": {"settings": "K562/Dox, wilforlide A 2.5 μg/ml pre-Tx, daunorubicin 3.33 μM 72 h"}, "[12]": {"settings": "K562/Dox, wilforlide A 2.5 μg/ml pre-Tx, daunorubicin 10 μM 72 h"}, "[13]": {"settings": "K562/Dox, wilforlide A 2.5 μg/ml pre-Tx, daunorubicin 33.3 μM 72 h"}, "[14]": {"settings": "K562/Dox, wilforlide A 2.5 μg/ml pre-Tx, daunorubicin 100 μM 72 h"}}, "note": "Where “and” joins values, the source holds several entries; their conditions need not be identical. Identical values can stand only once. Like-named read-outs stand apart in the source and are kept apart here."}
{"smiles": "COc1cccc2c1C(=O)c1c(O)c3c(c(O)c1C2=O)C[C@@](O)(C(C)=O)C[C@@H]3O[C@H]1C[C@H](N)[C@H](O)[C@H](C)O1", "note": "[daunorubicin]", "values": [{"measurement": "viability at 0.001 µM", "setting": "K562/Dox; K562, 72 h, K562/Dox, no wilforlide A pre-Tx, daunorubicin 0.001 μM 72 h", "result": 100, "unit": "%"}, {"measurement": "viability at 0.1 µM", "setting": "K562/Dox; K562, 72 h, K562/Dox, no wilforlide A pre-Tx, daunorubicin 0.1 μM 72 h", "result": 58.1, "unit": "%"}, {"measurement": "viability at 0.333 µM", "setting": "K562/Dox; K562, 72 h, K562/Dox, no wilforlide A pre-Tx, daunorubicin 0.333 μM 72 h", "result": 102, "unit": "%"}, {"measurement": "viability at 1 µM", "setting": "K562/Dox; K562, 72 h, K562/Dox, no wilforlide A pre-Tx, daunorubicin 1 μM 72 h", "result": 99.6, "unit": "%"}, {"measurement": "viability at 3.33 µM", "setting": "K562/Dox; K562, 72 h, K562/Dox, no wilforlide A pre-Tx, daunorubicin 3.33 μM 72 h", "result": 95.9, "unit": "%"}, {"measurement": "viability at 10 µM", "setting": "K562/Dox; K562, 72 h, K562/Dox, no wilforlide A pre-Tx, daunorubicin 10 μM 72 h", "result": 92.3, "unit": "%"}, {"measurement": "viability at 33.3 µM", "setting": "K562/Dox; K562, 72 h, K562/Dox, no wilforlide A pre-Tx, daunorubicin 33.3 μM 72 h", "result": 53.8, "unit": "%"}, {"measurement": "viability at 100 µM", "setting": "K562/Dox; K562, 72 h, K562/Dox, no wilforlide A pre-Tx, daunorubicin 100 μM 72 h", "result": 22.4, "unit": "%"}, {"measurement": "viability at 0.001 µM", "setting": "K562/Dox; K562, 72 h, K562/Dox, wilforlide A 2.5 μg/ml pre-Tx, daunorubicin 0.001 μM 72 h", "result": 100, "unit": "%"}, {"measurement": "viability at 0.1 µM", "setting": "K562/Dox; K562, 72 h, K562/Dox, wilforlide A 2.5 μg/ml pre-Tx, daunorubicin 0.1 μM 72 h", "result": 54.1, "unit": "%"}, {"measurement": "viability at 0.333 µM", "setting": "K562/Dox; K562, 72 h, K562/Dox, wilforlide A 2.5 μg/ml pre-Tx, daunorubicin 0.333 μM 72 h", "result": 104, "unit": "%"}, {"measurement": "viability at 1 µM", "setting": "K562/Dox; K562, 72 h, K562/Dox, wilforlide A 2.5 μg/ml pre-Tx, daunorubicin 1 μM 72 h", "result": 99, "unit": "%"}, {"measurement": "viability at 3.33 µM", "setting": "K562/Dox; K562, 72 h, K562/Dox, wilforlide A 2.5 μg/ml pre-Tx, daunorubicin 3.33 μM 72 h", "result": 95.4, "unit": "%"}, {"measurement": "viability at 10 µM", "setting": "K562/Dox; K562, 72 h, K562/Dox, wilforlide A 2.5 μg/ml pre-Tx, daunorubicin 10 μM 72 h", "result": 78.6, "unit": "%"}, {"measurement": "viability at 33.3 µM", "setting": "K562/Dox; K562, 72 h, K562/Dox, wilforlide A 2.5 μg/ml pre-Tx, daunorubicin 33.3 μM 72 h", "result": 33.7, "unit": "%"}, {"measurement": "viability at 100 µM", "setting": "K562/Dox; K562, 72 h, K562/Dox, wilforlide A 2.5 μg/ml pre-Tx, daunorubicin 100 μM 72 h", "result": 29.6, "unit": "%"}, {"measurement": "IC50", "setting": "K562/Dox; K562, 72 h, read-out: Drug IC50 no pre-Tx", "result": 30.7, "unit": "µM"}, {"measurement": "IC50", "setting": "K562/Dox; K562, read-out: Drug IC50 after wilforlide A pre-Tx", "result": 13.6, "unit": "µM"}, {"measurement": "mean A", "setting": "K562/Dox; [1]", "result": 2.893}, {"measurement": "A at 565 nm", "setting": "K562/Dox; [1]", "result": "2.848 and 2.923 and 2.909"}, {"measurement": "mean A", "setting": "K562/Dox; K562/Dox, no wilforlide A pre-Tx, daunorubicin 0.1 μM 72 h", "result": 1.682}, {"measurement": "mean A", "setting": "K562/Dox; [2]", "result": 2.951}, {"measurement": "A at 565 nm", "setting": "K562/Dox; [2]", "result": "2.943 and 2.956 and 2.955"}, {"measurement": "mean A", "setting": "K562/Dox; [3]", "result": 2.880}, {"measurement": "A at 565 nm", "setting": "K562/Dox; [3]", "result": "2.892 and 2.878 and 2.872"}, {"measurement": "mean A", "setting": "K562/Dox; [4]", "result": 2.775}, {"measurement": "A at 565 nm", "setting": "K562/Dox; [4]", "result": "2.805 and 2.780 and 2.741"}, {"measurement": "mean A", "setting": "K562/Dox; [5]", "result": 2.670}, {"measurement": "A at 565 nm", "setting": "K562/Dox; [5]", "result": "2.678 and 2.720 and 2.613"}, {"measurement": "mean A", "setting": "K562/Dox; [6]", "result": 1.556}, {"measurement": "A at 565 nm", "setting": "K562/Dox; [6]", "result": "1.625 and 1.639 and 1.406"}, {"measurement": "mean A", "setting": "K562/Dox; [7]", "result": 0.647}, {"measurement": "A at 565 nm", "setting": "K562/Dox; [7]", "result": "0.757 and 0.657 and 0.528"}, {"measurement": "mean A", "setting": "K562/Dox; [8]", "result": 2.815}, {"measurement": "A at 565 nm", "setting": "K562/Dox; [8]", "result": "2.797 and 2.838 and 2.810"}, {"measurement": "mean A", "setting": "K562/Dox; K562/Dox, wilforlide A 2.5 μg/ml pre-Tx, daunorubicin 0.1 μM 72 h", "result": 1.522}, {"measurement": "mean A", "setting": "K562/Dox; [9]", "result": 2.938}, {"measurement": "A at 565 nm", "setting": "K562/Dox; [9]", "result": "2.838 and 2.951 and 3.025"}, {"measurement": "mean A", "setting": "K562/Dox; [10]", "result": 2.786}, {"measurement": "A at 565 nm", "setting": "K562/Dox; [10]", "result": "2.777 and 2.784 and 2.799"}, {"measurement": "mean A", "setting": "K562/Dox; [11]", "result": 2.684}, {"measurement": "A at 565 nm", "setting": "K562/Dox; [11]", "result": "2.657 and 2.681 and 2.715"}, {"measurement": "mean A", "setting": "K562/Dox; [12]", "result": 2.213}, {"measurement": "A at 565 nm", "setting": "K562/Dox; [12]", "result": "2.200 and 2.392 and 2.049"}, {"measurement": "mean A", "setting": "K562/Dox; [13]", "result": 0.947}, {"measurement": "A at 565 nm", "setting": "K562/Dox; [13]", "result": "1.016 and 0.901 and 0.926"}, {"measurement": "mean A", "setting": "K562/Dox; [14]", "result": 0.832}, {"measurement": "A at 565 nm", "setting": "K562/Dox; [14]", "result": "0.843 and 0.815 and 0.840"}, {"measurement": "CE", "setting": "K562/Dox; chemosensitization effect, K562/Dox, wilforlide A 2.5 μg/ml pre-Tx", "result": 2.27}, {"measurement": "IC50", "setting": "K562", "result": 1.05, "unit": "µM"}]}
